In paper PMC9454848, “BMS-986158, a Small Molecule Inhibitor of the Bromodomain and Extraterminal Domain Proteins, in Patients with Selected Advanced Solid Tumors: Results from a Phase 1/2a Trial” (Cancers, 2022):
“Also recorded” adds a separate entry of the source. Read-outs that look alike come from different tables or passages of the source.

Columns and labels:
[1] = Plasma pharmacokinetics after multiple doses (cycle 2, steady state), LC-MS/MS; assay type: in vivo, human; conditions: for AUC(0-t) / half-life / Tmax / Cmax: human, plasma, oral
Protocol: At C1D1 in every dosing schedule cohort, a single dose was administered followed by 168 h (i.e., 7 days) of intensive PK sampling. Following cycle 1, the multiple-dose treatment schedules (described above) began in cycle 2. PK parameters were derived following single dose combined across all schedules and multiple doses at cycle 2 for each schedule. […] PK assessments were evaluated for BMS-986158 and its metabolite using plasma samples at regular intervals. Both the parent and metabolite samples were simultaneously analyzed using a validated liquid chromatography and tandem mass spectrometry assay.
(§1) All treated patients who received ≥1 dose of BMS-986158 were evaluated in the safety population. […] All treated patients with available and sufficient serum or plasma samples for the corresponding analytes were included in the PK analyses. […] ECG parameters were evaluated in a categorical analysis, and linear mixed-effects regression modeling was used to describe the quantitative relationship between ΔQTcF and time-matched serum concentrations of BMS-986158 or its metabolite at a single dose.

[2] = tested on: patients with advanced solid tumors; assay: ECG ΔQTcF exposure-response at single dose; assay type: in vivo
Protocol: Triplicate ECG measures were used to assess changes from baseline in the QT interval adjusted for heart rate using Fridericia’s formula (ΔQTcF) following a single dose of BMS-986158 at C1D1. ΔQTcF was evaluated in the context of exposure response for BMS-986158 and its metabolite of interest.
as §1

[3] = tested on: patient-derived xenograft models; design: method as in PMID 34543572; conditions: mouse, low doses; 9 of 19 models; cited from earlier work
HEXIM1 mRNA = assay: Change from baseline in gene expression, HEXIM1; assay type: in vivo, human; conditions: patients; by dose
Protocol: Summary changes from baseline in the expression of BET-regulated genes were assessed in tumor tissues and blood collected at baseline and multiple on-treatment time points after BMS-986158 administration following the 3 dosing schedules. The study also assessed summary percent changes from baseline in expression of BET-regulated genes in peripheral blood and tumors (such as HEXIM1 and C-MYC). Tissue and peripheral blood samples (at baseline and on treatment) were collected for genomic, transcriptomic, and epigenetic analyses (by DNA or mRNA) to assess pharmacodynamic changes in BET-regulated genes. These samples were analyzed using whole-exome sequencing, real-time quantitative polymerase chain reaction, and RNA-sequencing methods.
All treated patients with available biomarker measurements at baseline and ≥1 time point were included in the biomarker analyses. Blood and tumor tissue samples were collected at baseline, during treatment, and at end of treatment for biomarker analysis. Markers of selected BET-regulated genes (e.g., HEXIM1) were analyzed with summary statistics for percent changes in expression from available matched pre- and on-treatment samples over time relative to baseline. Statistically significant changes in gene expression were determined using the Benjamini–Hochberg procedure to calculate an adjusted p value with an α level of 0.05.

## Cc1nnn(C)c1-c1cnc2c3ccc(C(C)(C)O)cc3n([C@H](c3ccccc3)C3CCOCC3)c2c1 [BMS-986158]
[1]; Schedule A
  CL/F at steady state, geometric mean, range across doses: 4.60 to 5.41 mL/min
[1]; Schedule B
  CL/F at steady state, geometric mean, range across doses: 3.76 to 9.72 mL/min
[1]; Schedule C
  CL/F at steady state, geometric mean, range across doses: 3.89 to 6.65 mL/min
[1]; 0.75 mg, multiple dose, steady state, Schedule A (5 days on, 2 days off), 0.75 mg, n = 3, read-out: AUC(0–24), GM (%CV)
  AUC(0-t): 2720 ng·h/mL
[1]; 0.75 mg, multiple dose, steady state, Schedule A (5 days on, 2 days off), 0.75 mg, n = 3, read-out: Effective T1/2, mean (SD) (converted)
  half-life: 2160 min
[1]; 0.75 mg, multiple dose, steady state, Schedule A (5 days on, 2 days off), 0.75 mg, n = 4, read-out: AUC(0–T), GM (%CV)
  AUC(0-t): 3450 ng·h/mL
[1]; 0.75 mg, multiple dose, steady state, Schedule A (5 days on, 2 days off), 0.75 mg, n = 4, read-out: Tmax, median (range)
  Tmax: 3.14 h
[1]; 0.75 mg, multiple dose, steady state, Schedule A (5 days on, 2 days off), n = 4
  Cmax: 136 ng/mL
[1]; 1.25 mg, multiple dose, steady state, Schedule A (5 days on, 2 days off), 1.25 mg, n = 1, read-out: AUC(0–24), GM (%CV)
  AUC(0-t): 3850 ng·h/mL
[1]; 1.25 mg, multiple dose, steady state, Schedule A (5 days on, 2 days off), 1.25 mg, n = 4, read-out: AUC(0–T), GM (%CV)
  AUC(0-t): 4960 ng·h/mL
[1]; 1.25 mg, multiple dose, steady state, Schedule A (5 days on, 2 days off), 1.25 mg, n = 4, read-out: Tmax, median (range)
  Tmax: 1.5 h
[1]; 1.25 mg, multiple dose, steady state, Schedule A (5 days on, 2 days off), n = 4
  Cmax: 284 ng/mL
[1]; 2 mg, multiple dose, steady state, Schedule A (5 days on, 2 days off), 2.0 mg, n = 7, read-out: AUC(0–T), GM (%CV)
  AUC(0-t): 7610 ng·h/mL
[1]; 2 mg, multiple dose, steady state, Schedule A (5 days on, 2 days off), 2.0 mg, n = 7, read-out: Tmax, median (range)
  Tmax: 2 h
[1]; 2 mg, multiple dose, steady state, Schedule A (5 days on, 2 days off), n = 7
  Cmax: 442 ng/mL
[1]; 2 mg, multiple dose, steady state, Schedule B (14 days on, 7 days off), 2.0 mg, n = 1, read-out: AUC(0–24), GM (%CV)
  AUC(0-t): 3430 ng·h/mL
[1]; 2 mg, multiple dose, steady state, Schedule B (14 days on, 7 days off), 2.0 mg, n = 1, read-out: AUC(0–T), GM (%CV)
  AUC(0-t): 6320 ng·h/mL
[1]; 2 mg, multiple dose, steady state, Schedule B (14 days on, 7 days off), 2.0 mg, n = 1, read-out: Effective T1/2, mean (SD) (converted)
  half-life: 864 min
[1]; 2 mg, multiple dose, steady state, Schedule B (14 days on, 7 days off), 2.0 mg, n = 1, read-out: Tmax, median (range)
  Tmax: 1 h
[1]; 2 mg, multiple dose, steady state, Schedule B (14 days on, 7 days off), n = 1
  Cmax: 279 ng/mL
[1]; 2 mg, multiple dose, steady state, Schedule C (7 days on, 14 days off), 2.0 mg, n = 5, read-out: AUC(0–24), GM (%CV)
  AUC(0-t): 8560 ng·h/mL
[1]; 2 mg, multiple dose, steady state, Schedule C (7 days on, 14 days off), 2.0 mg, n = 5, read-out: AUC(0–T), GM (%CV)
  AUC(0-t): 19900 ng·h/mL
[1]; 2 mg, multiple dose, steady state, Schedule C (7 days on, 14 days off), 2.0 mg, n = 5, read-out: Effective T1/2, mean (SD) (converted)
  half-life: 1900 min
[1]; 2 mg, multiple dose, steady state, Schedule C (7 days on, 14 days off), 2.0 mg, n = 5, read-out: Tmax, median (range)
  Tmax: 1 h
[1]; 2 mg, multiple dose, steady state, Schedule C (7 days on, 14 days off), n = 5
  Cmax: 520 ng/mL
[1]; 3 mg, multiple dose, steady state, Schedule A (5 days on, 2 days off), 3.0 mg, n = 7, read-out: AUC(0–24), GM (%CV)
  AUC(0-t): 9820 ng·h/mL
[1]; 3 mg, multiple dose, steady state, Schedule A (5 days on, 2 days off), 3.0 mg, n = 7, read-out: Effective T1/2, mean (SD) (converted)
  half-life: 1540 min
[1]; 3 mg, multiple dose, steady state, Schedule A (5 days on, 2 days off), 3.0 mg, n = 8, read-out: AUC(0–T), GM (%CV)
  AUC(0-t): 13400 ng·h/mL
[1]; 3 mg, multiple dose, steady state, Schedule A (5 days on, 2 days off), 3.0 mg, n = 8, read-out: Tmax, median (range)
  Tmax: 2.01 h
[1]; 3 mg, multiple dose, steady state, Schedule A (5 days on, 2 days off), n = 8
  Cmax: 624 ng/mL
[1]; 3 mg, multiple dose, steady state, Schedule B (14 days on, 7 days off), 3.0 mg, n = 1, read-out: AUC(0–24), GM (%CV)
  AUC(0-t): 13300 ng·h/mL
[1]; 3 mg, multiple dose, steady state, Schedule B (14 days on, 7 days off), 3.0 mg, n = 1, read-out: AUC(0–T), GM (%CV)
  AUC(0-t): 34000 ng·h/mL
[1]; 3 mg, multiple dose, steady state, Schedule B (14 days on, 7 days off), 3.0 mg, n = 1, read-out: Effective T1/2, mean (SD) (converted)
  half-life: 2240 min
[1]; 3 mg, multiple dose, steady state, Schedule B (14 days on, 7 days off), 3.0 mg, n = 1, read-out: Tmax, median (range)
  Tmax: 1 h
[1]; 3 mg, multiple dose, steady state, Schedule B (14 days on, 7 days off), n = 1
  Cmax: 855 ng/mL
[1]; 3 mg, multiple dose, steady state, Schedule C (7 days on, 14 days off), 3.0 mg, n = 7, read-out: Effective T1/2, mean (SD) (converted)
  half-life: 1640 min
[1]; 3 mg, multiple dose, steady state, Schedule C (7 days on, 14 days off), 3.0 mg, n = 8, read-out: AUC(0–24), GM (%CV)
  AUC(0-t): 8640 ng·h/mL
[1]; 3 mg, multiple dose, steady state, Schedule C (7 days on, 14 days off), 3.0 mg, n = 8, read-out: AUC(0–T), GM (%CV)
  AUC(0-t): 18300 ng·h/mL
[1]; 3 mg, multiple dose, steady state, Schedule C (7 days on, 14 days off), 3.0 mg, n = 8, read-out: Tmax, median (range)
  Tmax: 1.66 h
[1]; 3 mg, multiple dose, steady state, Schedule C (7 days on, 14 days off), n = 8
  Cmax: 588 ng/mL
[1]; 4.5 mg, multiple dose, steady state, Schedule A (5 days on, 2 days off), 4.5 mg, n = 8, read-out: AUC(0–24), GM (%CV)
  AUC(0-t): 14600 ng·h/mL
[1]; 4.5 mg, multiple dose, steady state, Schedule A (5 days on, 2 days off), 4.5 mg, n = 8, read-out: AUC(0–T), GM (%CV)
  AUC(0-t): 29500 ng·h/mL
[1]; 4.5 mg, multiple dose, steady state, Schedule A (5 days on, 2 days off), 4.5 mg, n = 8, read-out: Effective T1/2, mean (SD) (converted)
  half-life: 1640 min
[1]; 4.5 mg, multiple dose, steady state, Schedule A (5 days on, 2 days off), 4.5 mg, n = 8, read-out: Tmax, median (range)
  Tmax: 2 h
[1]; 4.5 mg, multiple dose, steady state, Schedule A (5 days on, 2 days off), n = 8
  Cmax: 898 ng/mL
[1]; 4.5 mg, multiple dose, steady state, Schedule C (7 days on, 14 days off), 4.5 mg, n = 5, read-out: Effective T1/2, mean (SD) (converted)
  half-life: 1660 min
[1]; 4.5 mg, multiple dose, steady state, Schedule C (7 days on, 14 days off), 4.5 mg, n = 7, read-out: AUC(0–24), GM (%CV)
  AUC(0-t): 11300 ng·h/mL
[1]; 4.5 mg, multiple dose, steady state, Schedule C (7 days on, 14 days off), 4.5 mg, n = 7, read-out: AUC(0–T), GM (%CV)
  AUC(0-t): 20000 ng·h/mL
[1]; 4.5 mg, multiple dose, steady state, Schedule C (7 days on, 14 days off), 4.5 mg, n = 7, read-out: Tmax, median (range)
  Tmax: 2 h
[1]; 4.5 mg, multiple dose, steady state, Schedule C (7 days on, 14 days off), n = 7
  Cmax: 901 ng/mL
[1]; multiple dose, Schedule A, read-out: Mean effective T1/2, range
  half-life: 1540 to 2160 min
[1]; multiple dose, Schedule B, read-out: Mean effective T1/2, range
  half-life: 864 to 2240 min
[1]; multiple dose, Schedule C, read-out: Mean effective T1/2, range
  half-life: 1640 to 1900 min
[1]; multiple doses, Schedule A, 0.75–4.5-mg doses, read-out: Geometric mean AUC(0–T), range
  AUC(0-t): 3450 to 29500 ng·h/mL
[1]; multiple doses, Schedule A, read-out: AUC(0–24), range
  AUC(0-t): 2720 to 14600 ng·h/mL
[1]; multiple doses, Schedule B, 2.0–3.0-mg dose groups, read-out: Geometric mean AUC(0–T), range
  AUC(0-t): 6320 to 34000 ng·h/mL
[1]; multiple doses, Schedule B, read-out: AUC(0–24), range
  AUC(0-t): 3430 to 13300 ng·h/mL
[1]; multiple doses, Schedule C, 2.0–4.5 mg, read-out: Geometric mean AUC(0–T), range
  AUC(0-t): 18300 to 20000 ng·h/mL
[1]; multiple doses, Schedule C, read-out: AUC(0–24), range
  AUC(0-t): 8560 to 11300 ng·h/mL
[1]; multiple-dose administration, read-out: Tmax, range across all doses and schedules
  Tmax: 1 to 3.14 h
[1]; multiple-dose administration, Schedule A
  Dose proportionality of PK profile: approximately dose proportional; also recorded: dose-proportional PK profile
[1]; multiple-dose administration, Schedule C
  Dose proportionality of PK profile: less than dose proportional
[2]; single dose of BMS-986158
  Effect on ΔQTcF: neither BMS-986158 nor its metabolite had a statistically significant effect; also recorded: not found to cause significant QTc prolongation
[2]; single dose, linear mixed-effects model
  Predicted increase in ΔQTcF at highest observed Cmax: < 5 ms
[3]
  Patient-derived xenograft models with antitumor activity: 47%
HEXIM1 mRNA
  HEXIM1 mRNA expression change from baseline: dose dependently upregulated; also recorded: transcriptional activation
